One compound from paper PMC12305662, “Fragment-Based Development of Small Molecule Inhibitors Targeting Mycobacterium tuberculosis Cholesterol Metabolism” (Journal of Medicinal Chemistry, 2025) can be followed below.

In brackets after ≈: the same amount, converted by molar mass. Read-outs that look alike come from different tables or passages of the source.

Series [1] deals with CYP142 (Mycobacterium tuberculosis, UniProt P9WPL5).
Series [2] deals with H37Rv Mtb. The experiment in a line: Extracellular Mtb growth, MABA MIC90 (drug susceptible strain). The series is classed as cell-based. Conditions: Mycobacterium tuberculosis.
Series [3] deals with HepG2 cells. The experiment in a line: HepG2 cytotoxicity assay (CellTiter Glo ATP). The series is classed as cell-based. Conditions: ATP (RLU). As to the method: Compounds were tested against HepG2 cells for their ability to inhibit ATP production as a measure of cytotoxicity. HepG2 cells were cultured in DMEM supplemented with 10% (v/v) FBS, Hepes, L-glutamine and glucose or galactose. Compounds were serial diluted in microtiter plates (as described above) and HepG2 cells were added at a final concentration of 20,000 cells per well. Inhibition of ATP levels was noted by adding CellTiter Glo (Promega) reagent at a 1:10 dilution and luminescence was noted after 10 min incubation at room temperature.

CYP142, sequence (P9WPL5 whole entry): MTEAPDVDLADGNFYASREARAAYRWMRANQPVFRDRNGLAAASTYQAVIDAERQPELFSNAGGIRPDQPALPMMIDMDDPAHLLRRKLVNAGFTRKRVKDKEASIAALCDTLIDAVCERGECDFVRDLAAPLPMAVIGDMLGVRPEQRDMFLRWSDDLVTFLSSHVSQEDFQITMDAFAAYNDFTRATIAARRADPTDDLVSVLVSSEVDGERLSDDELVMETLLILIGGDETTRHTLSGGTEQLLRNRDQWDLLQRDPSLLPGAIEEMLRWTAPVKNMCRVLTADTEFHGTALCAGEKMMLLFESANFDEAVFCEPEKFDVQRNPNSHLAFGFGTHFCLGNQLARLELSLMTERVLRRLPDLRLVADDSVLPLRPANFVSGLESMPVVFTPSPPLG

`COc1ccc(CNc2ccc(Cc3ccncc3)cc2)cc1` [5m, N-(4-Methoxybenzyl)-4-(pyridin-4-ylmethyl)aniline]: the Kd – broadly, the concentration at which binding is half-saturated – in series [1] is 0.08 µM. In addition, the “ΔΔG [5m-1a], CYP142” value in series [1] (proportion of binding affinity attributed to the 1a-ii hotspot) amounted to 0.2. For the same compound, the MIC90 (in general, an inhibitory concentration at the 90% level, which refers to growth in some studies and to a panel of isolates in others) in series [2] (168 h, read-out: MIC90 (W1) H37Rv) was 0.78 µM (≈ 0.237 µg/mL); in series [2] (336 h, MABA 2 weeks post-compound treatment, read-out: MIC90 (W2) H37Rv), 6.25 µM (≈ 1.9 µg/mL). Moreover, in series [3] (galactose-containing media, mean ± SD n = 2), the “HepG2 LD50 / IC50, galactose media” value is 3.2 µM. In addition, in series [3] (standard (glucose-containing) media), the “HepG2 LD50 / IC50, glucose media” value was over 50 µM.
